Data: ChEMBL document CHEMBL1201862, “PubChem BioAssay data set” (2004)
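Exposure lasted 48 hours, with cells grown in 96-well plates and compounds tested at five concentrations. Abbreviation: GI50, concentration required for 50% inhibition of growth.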 Active and inactive are the calls of the source. Rule as the data show it: active = GI50 up to about 1.1 µM and inactive = higher.

Columns and labels:
Assay in all cases: NCI tumour cell line growth inhibition, 48 h
786-0 = test system: 786-0
A549 = test system: A549
COLO 205 = test system: COLO 205
EKVX = test system: EKVX
HOP-92 = test system: HOP-92
HT-29 = test system: HT-29
Malme-3M = test system: Malme-3M
OVCAR-3 = test system: OVCAR-3
OVCAR-5 = test system: OVCAR-5
OVCAR-8 = test system: OVCAR-8
RXF 393 = test system: RXF 393
SF-268 = test system: SF-268
SK-MEL-28 = test system: SK-MEL-28
TK-10 = test system: TK-10
U-251 = test system: U-251
CCRF-CEM = test system: CCRF-CEM
RPMI-8226 = test system: RPMI-8226
SK-OV-3 = test system: SK-OV-3

Measured: GI50

CCN1CC2(C)CC[C@@H](OC)C34[C@@H]2[C@H](OC(C)=O)C2(OCO[C@@]25C[C@H](OC)C2C[C@]3(O)[C@@H]5[C@H]2O)[C@H]14
inactive: 786-0 34.2 µM | A549 > 100 µM | COLO 205 > 100 µM | EKVX > 100 µM | HOP-92 > 100 µM | HT-29 > 100 µM | Malme-3M > 100 µM | OVCAR-3 > 100 µM | OVCAR-5 > 100 µM | OVCAR-8 > 100 µM | RXF 393 15.8 µM | SF-268 > 100 µM | SK-MEL-28 > 100 µM | TK-10 > 100 µM | U-251 > 100 µM

COC(=O)c1[nH]c(=S)[nH]c(=O)c1-c1ccc(Cl)cc1
inactive: 786-0 > 50 µM | A549 > 50 µM | CCRF-CEM > 50 µM | COLO 205 > 50 µM | EKVX > 50 µM | HOP-92 > 50 µM | HT-29 > 50 µM | Malme-3M > 50 µM | OVCAR-3 > 50 µM | OVCAR-5 > 50 µM | OVCAR-8 > 50 µM | RPMI-8226 > 50 µM | RXF 393 > 50 µM | SF-268 > 50 µM | SK-MEL-28 > 50 µM | SK-OV-3 > 50 µM | TK-10 > 50 µM | U-251 > 50 µM

O=S(O)CCCCSSCCCCSSCCCCS(=O)O
inactive: 786-0 > 100 µM | A549 34 µM | CCRF-CEM 5.9 µM | COLO 205 22.6 µM | EKVX 6.38 µM | HT-29 > 10 µM | Malme-3M 15.8 µM | OVCAR-3 33.9 µM | OVCAR-5 > 100 µM | OVCAR-8 18.9 µM | RXF 393 27.2 µM | SF-268 27.4 µM | SK-MEL-28 20.7 µM | SK-OV-3 > 100 µM | TK-10 26.4 µM | U-251 > 100 µM

CC(=O)Nc1ccc(/C=N\N2C(=O)c3ccccc3C2=O)cc1
inactive: 786-0 > 100 µM | A549 > 100 µM | CCRF-CEM > 100 µM | EKVX > 100 µM | HOP-92 > 100 µM | HT-29 > 100 µM | Malme-3M > 100 µM | OVCAR-3 > 100 µM | OVCAR-5 > 100 µM | OVCAR-8 > 100 µM | RPMI-8226 > 100 µM | RXF 393 > 100 µM | SF-268 > 100 µM | SK-MEL-28 > 100 µM | TK-10 > 100 µM

O=C1Nc2ccc([N+](=O)[O-])cc2/C1=N/Nc1ccc([N+](=O)[O-])cc1
inactive: 786-0 4.73 µM | A549 14.4 µM | CCRF-CEM 72.1 µM | COLO 205 34.7 µM | EKVX 35.3 µM | HOP-92 9.08 µM | HT-29 21.4 µM | OVCAR-3 20.1 µM | OVCAR-8 13.8 µM | RPMI-8226 5.09 µM | RXF 393 13.7 µM | SF-268 11.3 µM | SK-MEL-28 19.5 µM | SK-OV-3 22.2 µM | TK-10 24.8 µM | U-251 19.8 µM

Nc1nc2c(-c3ccc([N+](=O)[O-])cc3)nnn2c2ccccc12
inactive: 786-0 84.5 µM | A549 > 100 µM | CCRF-CEM > 10 µM | COLO 205 > 100 µM | EKVX > 100 µM | HOP-92 > 100 µM | HT-29 > 100 µM | Malme-3M > 100 µM | OVCAR-3 29.6 µM | OVCAR-5 > 100 µM | OVCAR-8 75.9 µM | RPMI-8226 > 100 µM | SF-268 > 100 µM | SK-MEL-28 > 100 µM | SK-OV-3 51.4 µM | TK-10 21 µM | U-251 17.9 µM

CC1(C)CC23C(=O)N(c4ccccc4)C(Nc4ccccc4)=NC2=CC(C#N)=C(C#N)C3O1 (centres undefined)
inactive: 786-0 > 100 µM | A549 28.1 µM | CCRF-CEM 48.6 µM | COLO 205 39.9 µM | EKVX > 100 µM | HOP-92 11.2 µM | HT-29 26.9 µM | Malme-3M 46.3 µM | OVCAR-3 > 100 µM | OVCAR-5 > 100 µM | OVCAR-8 99.5 µM | RPMI-8226 30.4 µM | RXF 393 15.2 µM | SF-268 > 100 µM | SK-MEL-28 > 100 µM | TK-10 > 100 µM | U-251 > 100 µM

Cc1nnc2n1N=C(c1ccccc1)C(c1ccccc1)S2 (centres undefined)
inactive: 786-0 27 µM | A549 45.4 µM | CCRF-CEM 19.3 µM | COLO 205 21.3 µM | EKVX 64 µM | HOP-92 60.4 µM | HT-29 34.8 µM | Malme-3M 64.1 µM | OVCAR-3 36.9 µM | OVCAR-5 > 100 µM | OVCAR-8 39.4 µM | RPMI-8226 43.6 µM | RXF 393 36.1 µM | SF-268 44.9 µM | SK-OV-3 27.2 µM | TK-10 > 100 µM | U-251 23.1 µM

COc1ccccc1-n1c(NN)nc2ccc(Br)cc2c1=O
inactive: 786-0 36.9 µM | A549 45.4 µM | CCRF-CEM 23.7 µM | COLO 205 45.9 µM | EKVX 27.9 µM | HT-29 38.2 µM | Malme-3M 39.4 µM | OVCAR-3 51.2 µM | OVCAR-5 18.2 µM | OVCAR-8 34 µM | RPMI-8226 41.2 µM | RXF 393 30.4 µM | SF-268 32.4 µM | SK-MEL-28 40.3 µM | SK-OV-3 26.5 µM | TK-10 28.4 µM | U-251 35.4 µM

COC1OC(CO)C(O)C(OC(C)=O)C1NC(=O)N(CCCl)N=O (centres undefined)
inactive: 786-0 81.7 µM | A549 > 100 µM | CCRF-CEM > 100 µM | COLO 205 > 100 µM | EKVX > 100 µM | HT-29 > 100 µM | Malme-3M > 100 µM | OVCAR-3 > 100 µM | OVCAR-5 > 100 µM | OVCAR-8 > 100 µM | RXF 393 > 100 µM | SF-268 21.3 µM | SK-MEL-28 > 100 µM | SK-OV-3 > 100 µM | TK-10 > 100 µM

COc1ccc2ccccc2c1C1OC(=O)c2ccccc21 (centres undefined)
inactive: 786-0 > 100 µM | A549 96.2 µM | CCRF-CEM > 100 µM | COLO 205 > 100 µM | EKVX > 100 µM | HOP-92 > 100 µM | HT-29 > 100 µM | Malme-3M > 100 µM | OVCAR-3 > 100 µM | OVCAR-5 > 100 µM | OVCAR-8 > 100 µM | RPMI-8226 > 100 µM | SF-268 > 100 µM | SK-OV-3 > 100 µM | TK-10 > 100 µM | U-251 > 100 µM

O=C(O)C1CCc2nnc(-c3ccccc3)n21 (centres undefined)
inactive: 786-0 > 100 µM | A549 > 100 µM | CCRF-CEM > 100 µM | COLO 205 > 100 µM | EKVX > 100 µM | Malme-3M > 100 µM | OVCAR-3 > 100 µM | OVCAR-8 > 100 µM | RPMI-8226 > 100 µM | RXF 393 > 100 µM | SF-268 > 100 µM | SK-MEL-28 > 100 µM | SK-OV-3 > 100 µM | TK-10 > 100 µM | U-251 > 100 µM

CC1=NN(C(=O)Cc2ccccc2)C(=O)/C1=C/c1c(O)ccc2ccccc12
inactive: 786-0 83.9 µM | A549 > 100 µM | CCRF-CEM 23.3 µM | COLO 205 > 100 µM | EKVX > 100 µM | HT-29 57.3 µM | Malme-3M 15.8 µM | OVCAR-3 48.6 µM | OVCAR-5 35.8 µM | OVCAR-8 37.2 µM | RPMI-8226 33.2 µM | SF-268 55.5 µM | SK-MEL-28 40.7 µM | TK-10 56.9 µM

C=C(/C=C/C=C(\CO)CCC=C(C)C)[C@H]1CCC2([C@H](CCCO)/C(=C(/C)C=O)CC[C@]2(C)O)[C@H]1O (some centres undefined)
inactive: 786-0 > 100 µM | A549 59 µM | CCRF-CEM 38.2 µM | COLO 205 26.3 µM | EKVX 83.8 µM | HOP-92 3.56 µM | HT-29 > 100 µM | Malme-3M > 100 µM | OVCAR-3 > 100 µM | OVCAR-5 > 100 µM | OVCAR-8 > 100 µM | RPMI-8226 > 100 µM | SK-MEL-28 > 100 µM | SK-OV-3 > 100 µM | TK-10 82 µM | U-251 > 100 µM

BrC1=CC=C2NCCCCCC/N=C3\C=CC(Br)=CC=C3NCCCCCC/N=C\2C=C1
inactive: 786-0 > 25.5 µM | A549 > 25.5 µM | CCRF-CEM > 25.5 µM | EKVX > 25.5 µM | HOP-92 > 25.5 µM | HT-29 > 25.5 µM | Malme-3M > 25.5 µM | OVCAR-3 > 25.5 µM | OVCAR-5 > 25.5 µM | OVCAR-8 > 25.5 µM | RPMI-8226 > 25.5 µM | RXF 393 > 25.5 µM | SF-268 > 25.5 µM | SK-MEL-28 > 25.5 µM | SK-OV-3 > 25.5 µM | TK-10 > 25.5 µM | U-251 > 25.5 µM

Cc1cccc(NC(=O)/C(=N\NC(C)(C)C)C2NC(=S)NC2=O)c1C (centres undefined)
inactive: 786-0 > 100 µM | A549 > 100 µM | CCRF-CEM > 100 µM | COLO 205 > 100 µM | EKVX 59.6 µM | Malme-3M > 100 µM | OVCAR-3 > 100 µM | OVCAR-5 > 100 µM | OVCAR-8 > 100 µM | RPMI-8226 > 100 µM | SK-OV-3 > 100 µM | TK-10 > 100 µM | U-251 > 100 µM

N/C=N/S(=O)(=O)c1ccc(NC(=O)COC(=O)c2cccc3c(=O)c4ccccc4[nH]c23)cc1
inactive: 786-0 > 100 µM | A549 > 100 µM | CCRF-CEM > 100 µM | COLO 205 > 100 µM | EKVX > 100 µM | HT-29 > 100 µM | Malme-3M > 100 µM | OVCAR-3 > 100 µM | OVCAR-8 > 100 µM | RPMI-8226 > 100 µM | RXF 393 > 100 µM | SK-MEL-28 > 100 µM | SK-OV-3 > 100 µM | TK-10 > 100 µM | U-251 > 100 µM
